Measurements as given in PMC9674596, “Origin of acetylcholine antagonism in ELIC, a bacterial pentameric ligand-gated ion channel” (Communications Biology, 2022).

Tests used:
Format in all cases: cell-based, Erwinia chrysanthemi
wild-type ELIC = target: T1, wild-type ELIC (Dickeya chrysanthemi, UniProt P0C7B7, INS163G); test: Two-electrode voltage clamp, whole-cell currents of wild-type ELIC expressed in Xenopus laevis oocytes; details: for IC50: ACh IC50, WT ELIC
T1 construct: expressed in transfected cells; host or cells: Xenopus laevis oocytes injected with cRNA from ELIC-pTLN
Protocol: (§1) Stage V-VI Xenopus laevis oocytes were isolated[72] and deflocculated enzymatically in ND96 buffer without Ca^2+ (96 mM NaCl, 2 mM KCl, 1 mM MgCl2, 2 mM pyruvate, 5 mM HEPES, pH 7.4), but supplemented with 1 mg/mL collagenase B and 1 mg/mL trypsin inhibitor, for 2 h at room temperature under constant stirring. The deflocculation buffer was then gradually removed by washing the oocytes in ND96 buffer (96 mM NaCl, 2 mM KCl, 1 mM MgCl2, 1 mM CaCl2, 2 mM pyruvate, 5 mM HEPES, pH 7.4) for several iterations. The oocytes were then allowed to stir for an additional hour at room temperature under constant stirring with the buffer being periodically replaced until clear. To obtain optimal receptor expression, individually selected and healthy oocytes were injected with 0.2 ng cRNA for wild-type ELIC and 5 ng cRNA for mutants. Subsequently, oocytes were incubated for one day at 16 °C in ND96^+ buffer (96 mM NaCl, 2 mM KCl, 1 mM MgCl2, 1 mM CaCl2, 2 mM pyruvate, and 5 mM HEPES at pH 7.6). After expression, injected oocytes were placed in a RC-1Z oocyte chamber (Harvard Apparatus; Hamden, CT) containing buffer (pH 7.4) composed of 150 mM NaCl, 0.5 mM BaCl2, 10 mM HEPES, and 1 mM dithiothreitol or 1 µM atropine if cysteamine, or ACh, was used in the experiment, respectively. The presence of the reducing agent, dithiothreitol, ensures that the sulfhydryl group of cysteamine remains reduced.
(§2) Once in the oocyte chamber, whole-cell currents were recorded using a two-electrode voltage-clamp apparatus (OC-725C oocyte clamp; Harvard Apparatus), with a buffer flow rate of 5–10 mL min^−1. Currents in response to various additions of cysteamine and/or ACh, were measured with the transmembrane voltage clamped at −60 mV. Dose response curves for each wild-type and mutant ELIC were acquired from at least five oocytes in two different batches. […]

ELIC Y38W = ELIC Y38W (Dickeya chrysanthemi, UniProt P0C7B7, Y38W); test: Two-electrode voltage clamp, Y38W mutant ELIC expressed in Xenopus laevis oocytes
Protocol: as §1, with “After expression, injected oocytes were placed in a RC-1Z oocyte chamber (Harvard Apparatus; Hamden, CT) containing buffer (pH 7.4) composed of 150 mM NaCl, 0.5 mM BaCl2, 10 mM HEPES, and 1 mM dithiothreitol or 1 µM atropine if cysteamine, or ACh, was used in the experiment, respectively. The presence of the reducing agent, dithiothreitol, ensures that the sulfhydryl group of cysteamine remains reduced.” left out
as §2, with “mV.” for “mV. Dose response curves for each wild-type and mutant ELIC were acquired from at least five oocytes in two different batches.”

ELIC A75D = target: T2, ELIC A75D (Dickeya chrysanthemi, UniProt P0C7B7, A75D/INS163G); test: Two-electrode voltage clamp, A75D mutant ELIC expressed in Xenopus laevis oocytes
T2 construct: expressed in transfected cells; host or cells: Xenopus laevis oocytes injected with cRNA from ELIC-pTLN

ELIC F133W = ELIC F133W (Dickeya chrysanthemi, UniProt P0C7B7, F133W); test: cell-based
Protocol: as §1, with “After expression, injected oocytes were placed in a RC-1Z oocyte chamber (Harvard Apparatus; Hamden, CT) containing buffer (pH 7.4) composed of 150 mM NaCl, 0.5 mM BaCl2, 10 mM HEPES, and 1 mM dithiothreitol or 1 µM atropine if cysteamine, or ACh, was used in the experiment, respectively. The presence of the reducing agent, dithiothreitol, ensures that the sulfhydryl group of cysteamine remains reduced.” left out
as §2, with “mV.” for “mV. Dose response curves for each wild-type and mutant ELIC were acquired from at least five oocytes in two different batches.”

Structure (SMILES): CC(=O)OCC[N+](C)(C)C [ACh, acetylcholine]
- IC50 (wild-type ELIC; inhibition of GABA-activated current, GABA at its EC50 (2.7 mM)): 1100 ± 200 µM
- IC50 (wild-type ELIC; inhibition of cysteamine-activated current, cysteamine at its EC50 (0.6 mM)): 1000 ± 200 µM
- IC50 (ELIC Y38W): 400 ± 100 µM
- IC50 (ELIC A75D): 7000 ± 2000 µM
- IC50 (ELIC F133W): 8000 ± 2000 µM

Structure (SMILES): NCCCC(=O)O [GABA, γ-aminobutyric acid]
- EC50 (wild-type ELIC): 2700 ± 300 µM
